In patent publication US11285155B2, “Pharmaceutical combinations for treating cancer” (SUPPORT-VENTURE GMBH, priority 2016, dated 2022):
Counter-ions that a name gives are not always drawn.

How the values were obtained:
A549 tumor cells = experiment: Antitumoral efficacy in subcutaneous xenograft A549 lung carcinoma model; assay type: in vivo, female athymic nude mice; conditions: necropsy day 46; pioglitazone HCl 10 mg/kg, pamapimod 100 mg/kg, alone or combined, p.o. once daily days 22-45
Procedure: Evaluation of the Antitumoral Efficacy of Pamapimod and Pioglitazone Hydrochloride Alone and in Combination in a Subcutaneous Xenograft A549 Lung Carcinoma Model in Female Athymic Nude Mice In Vivo The study consisted of 4 experimental groups, each containing 10 female athymic nude mice after randomization (for details, see Table 1 below). On day 0, 2×10^6 A549 tumor cells in 100 μl PBS:Matrigel (1:1) were subcutaneously implanted into the left flank of all participating female athymic nude mice. In the following, primary tumor sizes were measured two times weekly (Monday and Friday) by calipering. […] For block randomization, a robust automated random number generation within individual blocks was used (MS-Excel 2003). On the following day (day 22), treatment was initiated in all groups (see Table 1 for details). Pioglitazone HCL (10 mg/kg) and pamapimod (100 mg/kg) were administered both alone (Groups 2 and 3, respectively) and in combination (Group 4) once daily p.o. on days 22-45. Animals of Group 1 were treated with 10 ml/kg Vehicle Control (0.9% NaCl, 0.5% Methyl Cellulose, 0.4% polysorbate 80, 0.9% benzyl alcohol, pH 4.8) once daily p.o. for the same time period. The study was terminated on day 46. All animals were sacrificed and necropsy was performed. Primary tumors were collected and wet weights and volumes determined. On day 0, 2×10^6 A549 tumor cells in 100 μl PBS:Matrigel (1:1) were subcutaneously implanted into the left flank of 54 female athymic nude mice. In the following, animal weights were measured three times weekly (Monday, Wednesday and Friday; balance: Mettler Toledo PB602-L). Primary tumor sizes were measured twice weekly by calipering (manual caliper, OMC Fontana). Tumor sizes were calculated according to the formula W^2×L/2 (L=length and W=the perpendicular width of the tumor, L>W). […] For block randomization, a robust automated random number generation within individual blocks was used (MS-Excel 2003). On the following day (day 22), treatment was initiated in all groups (see Table 1 for details). At necropsy, animals were weighed and killed by cervical dislocation. Primary tumors were collected and wet weights and volumes determined. Primary tumor volumes were analyzed using descriptive data analysis (Mean, SEM, Median and interquartile range). Statistical analysis of efficacy data was done using the Mann Whitney test and the unpaired t-test (in parentheses). All data analysis was performed using GraphPad Prism 5 from GraphPad Software, Inc., San Diego, USA.

CT26 wt_LLN cells = experiment: Antitumoral efficacy in orthotopic syngeneic CT26 wt colon carcinoma model; assay type: in vivo, female BALB/c mice; conditions: necropsy day 20, pioglitazone HCl 25 mg/kg, pamapimod 100 mg/kg, p.o. once daily days 3-20; for antitumoral efficacy, primary tumor volume vs vehicle control / antitumoral efficacy, primary tumor weight vs vehicle control: alone or combined; for number of animals with metastases: of 12 animals per group, vehicle group six
Procedure: Evaluation of the Antitumoral Efficacy of Pamapimod and Pioglitazone Hydrochloride Alone and in Combination in an Orthotopic Syngeneic CT26 wt Colon Carcinoma Model in Female BALB/c Mice In Vivo The study consisted of 4 experimental groups, each containing 12 female BALB/c mice after randomization (for details, see Table 1 below). On day 0, 0.5×10^5 CT26 wt_LLN cells suspended in 15 μl PBS:Matrigel (1:2) were orthotopically implanted into the caecum of all participating animals. In the following period, primary tumor growth was monitored once weekly on days 2, 9, 15 and 20 using in vivo bioluminescence imaging. On day 2, 48 animals were randomized into 4 groups of 12 animals each according to the current in vivo bioluminescence imaging results (block of four after ranking). For block randomization, a robust automated random number generation within individual blocks was used (MS-Excel 2016). Thereby, detected luciferase signals served as randomization criteria. On the following day (day 3), treatment was initiated in all groups (see Table 1 for details). All treatments were performed at 10 ml/kg 1× daily p.o. on days 3-20. Pioglitazone HCL (25 mg/kg) and pamapimod (100 mg/kg) were administered both alone (Groups 2 and 3, respectively) and in combination (Group 4) once daily p.o. Animals of Group 1 were treated with 10 ml/kg Vehicle Control (0.9% NaCl, 0.5% Methyl Cellulose, 0.4% polysorbate 80, 0.9% benzyl alcohol, pH 4.8) once daily p.o. On day 20, the study was terminated due to tumor burden All animals were sacrificed and a necropsy performed. Primary tumors were collected and wet weights and volumes determined. On day 0, prior to surgery, and 24 h after surgery, all animals received the analgetic Meloxicam (Metacam®; 1 mg/kg) via subcutaneous injection. […] Thereby, cells were carefully injected in between caecum and mesentery. After the caecum had been repositioned, the skin was closed with wound clips. In the following, animal weights were measured three times weekly (Monday, Wednesday and Friday; balance: Mettler Toledo PB602-L). Primary tumor growth was monitored once weekly on days 2, 9, 15 and 20 using in vivo bioluminescence imaging. On day 2, 48 animals were randomized into 4 groups of 12 animals each according to the current in vivo bioluminescence imaging results (block of four after ranking). For block randomization, a robust automated random number generation within individual blocks was used (MS-Excel 2016). Thereby, detected luciferase signals served as randomization criteria. On the following day (day 3), treatment was initiated in all groups (see Table 2 for details). During the course of the study, tumor growth was monitored once weekly on days 2, 9, 15 and 20 using in vivo bioluminescence imaging. For this purpose, 150 mg/kg D-Luciferin were injected intraperitoneally (i.p.) into the mice 7 min before anesthetization. Light emission was measured 10 min post injection with a CCD-camera for 1-5 min using a NightOWL LB 981 bioluminescence imaging system (Berthold Technologies, Germany). On day 20, animals were killed by cervical dislocation. Primary tumors were collected, wet weights and volumes determined. Primary tumor volumes were analyzed using descriptive data analysis (Mean, SEM, Median and interquartile range). Statistical analysis of efficacy data was done using the Mann Whitney test and the unpaired t-test (in parentheses). All data analysis was performed using GraphPad Prism 5 from GraphPad Software, Inc., San Diego, USA.

SMILES	primary tumor volume vs vehicle control (A549 tumor cells)	primary tumor weight vs vehicle control (A549 tumor cells)	antitumoral efficacy, primary tumor volume vs vehicle control (CT26 wt_LLN cells)	antitumoral efficacy, primary tumor weight vs vehicle control (CT26 wt_LLN cells)	number of animals with metastases (CT26 wt_LLN cells)
Cn1c(=O)c(Oc2ccc(F)cc2F)cc2cnc(NC(CCO)CCO)nc21 [pamapimod, 6-(2,4-Difluorophenoxy)-2-[3-hydroxy-1-(2-hydroxyethyl)-propylamino]-8-methyl-8H-pyrido[2,3-d]pyrimidin-7-one]	noticeable decrease in both tumor volumes and tumor weights which was significant for tumor volume	nearly significant for tumor weight	significant in case of primary tumor volumes	just beyond significance in case of primary tumor weights	2 animals
CCc1ccc(CCOc2ccc(CC3SC(=O)NC3=O)cc2)nc1 (stereo not shown) [pioglitazone HCl, pioglitazone hydrochloride]	noticeable reduction in both tumor volumes and tumor weights compared to control which approached statistical significance	noticeable reduction in both tumor volumes and tumor weights compared to control which approached statistical significance	no antitumoral efficacy	no antitumoral efficacy	four
